Assay results reported in patent publication US12514797B2, “Cosmetic and dermatological compositions” (Northeastern University, priority 2017, dated 2026).

What was measured:
[1] = Spectrophotometric pH titration, experimental determination of pKa; format: physicochemical; conditions: water titrated with 0.05 M NaOH, extrapolated from absorbance intensity at 430 and 360 nm as a function of pH
Method: The two observed pKas are indicated by the dashed lines at 5.50 and 8.40.
The purified xanthommatin (˜5 mg) was suspended in water (5.00 mL) and titrated to a starting pH of 2.08. The solution was then titrated with 0.05 M NaOH until the pH reached 10.37. During each point in the titration, the solution pH and absorbance was determined. pH levels were measured using a Fisher Scientific Accumet AP 110 pH meter (Fisher Scientific, Waltham, MA).
The pH-dependent color change of a […] solution of xanthommatin was monitored over a pH range of 1.90-10.30 using spectrophotometry. Three distinct patterns were associated with the increasing pH (see FIG. 8). At pH<3.00, the pigment was pale-yellow with a λmax˜430 nm. […] To determine whether the observed intensity in color was reversible at the lower pH values, the pH of xanthommatin was next cycled between acidic (2.00-3.00) and neutral (pH 6.00-8.00) conditions six times, and the absorbance intensity at 430 nm was followed. […]
If the presence or absence of protons were indeed influencing the resultant visible color, then individual acid dissociation constants (Ka) could be experimentally extrapolated and used to follow compositional changes in the biochrome as a function of pH. To test this, it was determined how absorbance intensities varied as a function of pH at both 430 and 360 nm (see FIG. 9). […]

[2] = pH-dependent stability (MSMS analysis of pigment hydrolysis); format: physicochemical; conditions: pH values approached and exceeded 10.00, mass addition of water
[3] = UV absorbance in vitro, SPF calculated using the Mansur equation, comparison to known UV-filters; format: physicochemical
Method: FIG. 12 provides absorbance curves (see top graph) and corresponding comparator values (see table) of Xa to known UV-filters, avo- and oxy-benzone. […] X−1 represents synthetic Xa; X−2 represents Xa extracted from squid at 0.10 mM. SPF was calculated using the Mansur equation and critical wavelength was determined as the wavelength at which 90% of the absorbance curve resides.
Xa is the simplest and most common ommochrome and is formed (along with the reduced dihydro-xanthommatin and ommatin subclasses) via the condensation of two hydroxykynurenine residues in the kynurenine pathway of tryptophan metabolism. Once synthesized, Xa is stabilized within granules (diameter 530 nm) that are resistant to photodegradation. An added predicted functionality, although largely unexplored in vitro and in vivo, is that Xa behaves as a free-radical scavenger. Together, with the data presented in FIG. 12 showing that Xa absorbs UV radiation ˜2× higher than current chemical filters at the same concentrations, it is expected that Xa and Xa-based materials can function as UV-filters that can not only protect against solar irradiation but can also be used in preventative skin care as free-radical scavengers (while maintaining biocompatibility).
(§1) Given its propensity to form granules in natural systems (FIG. 3, left) and its impressive UV-absorptive properties in vitro (FIG. 12, see Table 2 below), Xa was encapsulated within biodegradable particles designed to improve its durability and use as a topical UV-filter. The complex refractive index (RI) of Xa was experimentally determined as 1.92+0.014i. This uniquely high RI is important, especially when considering the design criteria of the particle based UV-filters. For instance, when assembled into nano- and micro-particles, Xa will scatter more light than it absorbs at diameters >200 nm, and this difference is maximized at sizes >[…] (FIG. 13). Because light scattering is an important feature for heat dissipation and reflection for coatings, it can be preferable to design particles with diameters ranging from 1-10 μm.

[4] = Hydroxyl radical antioxidant capacity (HORAC) activity assay; format: biochemical; conditions: compared to commercially available antioxidant standard gallic acid
Source text: FIG. 14 illustrates the hydroxyl radical antioxidant capacity (HORAC) activity assay activity of Xa. The HORAC assay was used to evaluate the application of Xa as a natural antioxidant. Xa consumes hydroxyl radicals produced by the activation of the fenton reagent preventing the degradation of the fluorescein probe.
Oxygen derived species such as superoxide radical, hydrogen peroxide, singlet oxygen and hydroxyl radical are well known to be cytotoxic and have been implicated in the onset of a wide array of human diseases. These “compounds” are often referred to as reactive oxygen species (ROS). ROS normally exist in all aerobic cells in balance with biochemical antioxidants; however, this critical equilibrium can be disrupted due to excess ROS or antioxidant depletion and can result in oxidative stress. Antioxidants are used in cosmetics, pharmaceuticals, food and on the skin directly minimize the undesirable reactions resulting from oxidation caused by ROS. Commonly used antioxidants typically contain a combination of phenol, benzene and alkene functional groups. These key features work to inhibit the propagation of ROS through resonance stabilization of free radicals. […] The ability of particles and pigments (free and encapsulated) to […] ROS are measured using the colorimetric hydroxyl radical antioxidant capacity (HORAC) assay (FIG. 14). […]

[5] = Complex refractive index determination; format: physicochemical
Source text: as §1

[6] = Electrochromic device (Xa in PEDOT:PSS) redox-dependent color switch, CIE 1931 chromaticity and transmittance; format: physicochemical; conditions: darkest yellow (O3) to red (R3) films, 555 nm
Source text: Even though its exact mechanism for electron transfer remains unknown, phenoxazone-based materials are believed to undergo a reversible reduction to dihydroxanthommatin, gaining two electrons and two protons during its redox-dependent color change. These principles are used to show how the pigment stabilized in a polymer (PEDOT-PSS) matrix is capable of switching color in response to different applied voltages. When a double potential step from +1.5 V to −1.5 V vs ground was applied to the device, a redox-dependent color switch was observed (FIG. 11). The current required to switch from one colored state to another was plotted as a function of time upon application of a square-wave potential (FIG. 10). […] In each case, the switching time for each step was calculated as the time required to reach 95% of the maximum current.
The spectral tunability of these materials was also investigated by varying the ratio between PEDOT:PSS and pigment (FIG. 11). Different concentrations of xanthommatin (from 0.04 mg/ml to 0.16 mg/ml) were used while the amount of PEDOT:PSS remained constant. The color of each film activated at the different redox states was measured using the International Commission of Illumination (CIE) 1931 xy-chromaticity diagram. […]
Because the human eye is most sensitive at 555 nm, all transmittance values were calculated at this wavelength without any background correction.

NC(CC(=O)c1cccc2oc3cc(=O)c4[nH]c(C(=O)O)cc(=O)c4c-3nc12)C(=O)O (stereo not shown) [Xa, xanthommatin]
pKa [1]: 5.5 | pigment hydrolysis [2]: pigment hydrolysis occurred | SPF in vitro ([3]; 0.062 mM): 3 | SPF in vitro ([3]; 0.125 mM): 14 | SPF in vitro ([3]; 0.250 mM): 38 | UV radiation absorption relative to current chemical filters ([3]; same concentrations, FIG. 12 comparators avo- and oxy-benzone): ~2 × | HORAC activity [4]: enhanced activity in comparison to commercially available standard gallic acid | HORAC activity ([4]; listed as Xanthommatin): enhanced activity when compared to commercially available antioxidant gallic acid | complex refractive index (RI) [5]: 1.92+0.014i | optical contrast (ΔT %) [6]: 25.4%
